Test results as given in ChEMBL document CHEMBL3991601, “The target landscape of clinical kinase drugs” (Science, 2017).
The source made the active and inactive calls. For most assays here, no stated cut-off is given here; in the data, actives have a measured Kd and inactives only a lower limit.

Tests used:
[1] = molecular target: Cyclin-dependent kinase 6 (Homo sapiens, UniProt Q00534)
[2] = molecular target: Casein kinase I isoform gamma-1 (Homo sapiens, UniProt Q9HCP0)
[3] = molecular target: T1, Mitogen-activated protein kinase kinase kinase 2 (Homo sapiens, UniProt Q9Y2U5)
T1 sequence (Q9Y2U5 whole entry): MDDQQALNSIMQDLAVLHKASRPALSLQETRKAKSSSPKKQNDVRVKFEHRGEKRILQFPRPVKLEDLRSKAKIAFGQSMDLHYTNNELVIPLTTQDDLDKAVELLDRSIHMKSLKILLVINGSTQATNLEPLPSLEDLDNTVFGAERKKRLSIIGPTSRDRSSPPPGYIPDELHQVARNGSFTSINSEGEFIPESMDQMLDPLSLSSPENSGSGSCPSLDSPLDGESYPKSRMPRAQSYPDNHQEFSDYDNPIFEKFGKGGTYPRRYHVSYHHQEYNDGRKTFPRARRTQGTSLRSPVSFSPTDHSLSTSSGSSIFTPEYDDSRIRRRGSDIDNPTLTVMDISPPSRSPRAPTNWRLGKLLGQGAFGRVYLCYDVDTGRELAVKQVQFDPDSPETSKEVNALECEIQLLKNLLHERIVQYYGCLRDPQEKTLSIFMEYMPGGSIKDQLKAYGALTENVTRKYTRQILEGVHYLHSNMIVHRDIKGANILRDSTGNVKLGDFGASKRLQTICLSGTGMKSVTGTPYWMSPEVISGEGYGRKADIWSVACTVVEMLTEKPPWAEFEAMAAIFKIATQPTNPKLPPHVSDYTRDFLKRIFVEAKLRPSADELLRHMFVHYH

[4] = molecular target: Serine/threonine-protein kinase N2 (Homo sapiens, UniProt Q16513)
[5] = molecular target: T2, Serine/threonine-protein kinase PLK4 (Homo sapiens, UniProt O00444)
T2 sequence (O00444 whole entry): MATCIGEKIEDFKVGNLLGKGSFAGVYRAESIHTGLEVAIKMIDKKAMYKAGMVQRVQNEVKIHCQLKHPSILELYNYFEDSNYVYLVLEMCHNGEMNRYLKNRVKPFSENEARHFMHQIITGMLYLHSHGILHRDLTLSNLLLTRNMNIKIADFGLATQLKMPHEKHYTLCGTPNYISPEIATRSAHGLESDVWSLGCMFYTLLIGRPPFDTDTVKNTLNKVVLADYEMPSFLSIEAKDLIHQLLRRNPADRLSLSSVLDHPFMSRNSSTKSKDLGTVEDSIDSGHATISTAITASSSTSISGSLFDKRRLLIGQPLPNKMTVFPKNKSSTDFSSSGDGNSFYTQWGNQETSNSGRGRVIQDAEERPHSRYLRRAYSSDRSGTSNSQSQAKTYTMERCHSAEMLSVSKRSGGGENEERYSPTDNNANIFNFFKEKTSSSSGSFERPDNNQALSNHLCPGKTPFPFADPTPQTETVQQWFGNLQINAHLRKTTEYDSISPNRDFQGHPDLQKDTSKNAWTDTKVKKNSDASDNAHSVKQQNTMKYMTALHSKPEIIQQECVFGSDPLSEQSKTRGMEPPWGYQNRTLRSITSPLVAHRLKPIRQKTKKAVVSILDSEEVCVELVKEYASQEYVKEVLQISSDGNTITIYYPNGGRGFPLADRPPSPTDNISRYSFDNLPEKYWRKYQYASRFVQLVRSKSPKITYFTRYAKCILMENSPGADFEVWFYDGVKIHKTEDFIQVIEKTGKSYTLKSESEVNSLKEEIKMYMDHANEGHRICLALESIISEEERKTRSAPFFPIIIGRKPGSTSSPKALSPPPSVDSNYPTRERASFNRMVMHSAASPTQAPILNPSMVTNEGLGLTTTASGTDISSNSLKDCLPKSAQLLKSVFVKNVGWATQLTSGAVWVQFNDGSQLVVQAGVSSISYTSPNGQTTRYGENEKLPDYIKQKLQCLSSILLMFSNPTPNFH

ADP/ATP translocase 3 = molecular target: T3, ADP/ATP translocase 3 (Homo sapiens, UniProt P12236)
T3 sequence (P12236 whole entry): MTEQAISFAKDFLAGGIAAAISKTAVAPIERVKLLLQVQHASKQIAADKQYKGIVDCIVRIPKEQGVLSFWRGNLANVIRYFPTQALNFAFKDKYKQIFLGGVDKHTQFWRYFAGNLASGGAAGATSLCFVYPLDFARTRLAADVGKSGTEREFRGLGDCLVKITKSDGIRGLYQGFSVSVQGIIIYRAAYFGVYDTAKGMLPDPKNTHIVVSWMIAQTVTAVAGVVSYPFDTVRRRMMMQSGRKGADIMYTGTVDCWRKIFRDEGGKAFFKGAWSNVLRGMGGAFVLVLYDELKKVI

[6] = molecular target: T4, Tyrosine--tRNA ligase, cytoplasmic (Homo sapiens, UniProt P54577)
T4 sequence (P54577 whole entry): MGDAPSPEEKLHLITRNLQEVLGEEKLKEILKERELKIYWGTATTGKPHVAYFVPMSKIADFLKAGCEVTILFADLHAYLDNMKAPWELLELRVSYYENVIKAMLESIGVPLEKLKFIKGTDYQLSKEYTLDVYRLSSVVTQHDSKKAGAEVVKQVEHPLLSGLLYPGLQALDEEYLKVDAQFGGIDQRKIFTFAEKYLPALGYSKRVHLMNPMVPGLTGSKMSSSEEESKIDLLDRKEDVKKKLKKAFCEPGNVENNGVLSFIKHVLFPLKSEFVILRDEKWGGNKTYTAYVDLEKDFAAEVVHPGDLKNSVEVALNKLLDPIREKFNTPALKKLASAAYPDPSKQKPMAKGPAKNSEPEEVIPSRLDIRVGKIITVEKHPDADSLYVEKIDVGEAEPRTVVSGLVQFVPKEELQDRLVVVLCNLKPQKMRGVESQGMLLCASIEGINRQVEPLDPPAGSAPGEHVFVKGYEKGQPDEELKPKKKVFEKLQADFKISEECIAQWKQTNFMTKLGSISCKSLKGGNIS

Cyclin-dependent kinase 6, sequence (Q00534 whole entry, canonical isoform): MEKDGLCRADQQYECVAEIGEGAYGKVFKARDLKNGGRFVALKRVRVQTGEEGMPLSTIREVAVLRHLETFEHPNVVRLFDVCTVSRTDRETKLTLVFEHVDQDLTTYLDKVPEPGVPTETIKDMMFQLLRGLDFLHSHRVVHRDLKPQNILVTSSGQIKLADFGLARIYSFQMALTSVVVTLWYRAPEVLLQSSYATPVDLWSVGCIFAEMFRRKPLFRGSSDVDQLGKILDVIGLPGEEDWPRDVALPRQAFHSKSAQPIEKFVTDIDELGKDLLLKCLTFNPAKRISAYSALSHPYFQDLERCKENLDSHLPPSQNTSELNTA
Casein kinase I isoform gamma-1, sequence (Q9HCP0 whole entry, canonical isoform): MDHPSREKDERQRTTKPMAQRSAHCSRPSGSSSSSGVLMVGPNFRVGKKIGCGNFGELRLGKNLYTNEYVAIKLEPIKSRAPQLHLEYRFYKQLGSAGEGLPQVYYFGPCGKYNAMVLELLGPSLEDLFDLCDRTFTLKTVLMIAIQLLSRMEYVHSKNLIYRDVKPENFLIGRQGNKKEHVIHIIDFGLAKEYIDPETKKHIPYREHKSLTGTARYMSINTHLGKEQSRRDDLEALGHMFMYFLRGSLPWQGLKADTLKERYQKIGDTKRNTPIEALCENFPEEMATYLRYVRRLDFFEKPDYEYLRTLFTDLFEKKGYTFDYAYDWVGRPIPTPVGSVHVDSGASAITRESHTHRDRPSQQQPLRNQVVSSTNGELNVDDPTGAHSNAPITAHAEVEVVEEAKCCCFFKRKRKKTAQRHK
Serine/threonine-protein kinase N2, sequence (Q16513 whole entry): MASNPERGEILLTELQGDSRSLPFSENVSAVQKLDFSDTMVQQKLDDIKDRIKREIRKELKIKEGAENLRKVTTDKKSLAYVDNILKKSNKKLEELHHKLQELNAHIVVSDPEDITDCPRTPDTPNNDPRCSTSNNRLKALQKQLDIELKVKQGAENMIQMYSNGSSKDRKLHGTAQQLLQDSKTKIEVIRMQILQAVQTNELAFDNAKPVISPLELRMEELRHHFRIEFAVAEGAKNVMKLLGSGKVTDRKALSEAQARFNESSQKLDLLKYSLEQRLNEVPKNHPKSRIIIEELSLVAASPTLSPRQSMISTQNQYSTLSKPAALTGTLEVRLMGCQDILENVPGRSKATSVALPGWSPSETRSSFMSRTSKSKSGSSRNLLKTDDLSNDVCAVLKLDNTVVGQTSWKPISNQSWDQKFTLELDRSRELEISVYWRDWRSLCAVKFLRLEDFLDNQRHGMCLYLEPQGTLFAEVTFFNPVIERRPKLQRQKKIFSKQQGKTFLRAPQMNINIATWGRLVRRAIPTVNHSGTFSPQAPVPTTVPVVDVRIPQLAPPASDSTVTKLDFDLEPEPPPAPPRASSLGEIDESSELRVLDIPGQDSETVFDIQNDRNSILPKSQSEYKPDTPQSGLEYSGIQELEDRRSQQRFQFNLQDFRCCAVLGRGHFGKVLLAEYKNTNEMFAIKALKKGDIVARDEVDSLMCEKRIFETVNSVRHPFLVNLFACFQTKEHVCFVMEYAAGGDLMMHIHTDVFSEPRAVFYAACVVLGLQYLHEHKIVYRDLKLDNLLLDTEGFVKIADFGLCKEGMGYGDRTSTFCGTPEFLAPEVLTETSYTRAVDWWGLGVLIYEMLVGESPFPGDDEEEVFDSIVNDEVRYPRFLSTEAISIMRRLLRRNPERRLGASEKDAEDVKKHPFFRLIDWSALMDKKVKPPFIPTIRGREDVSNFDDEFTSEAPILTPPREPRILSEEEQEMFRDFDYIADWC

SMILES	Kd [1]	Kd [2]	Kd [3]	Kd [4]	Kd [5]	Kd (ADP/ATP translocase 3)	Kd [6]
COc1cc([C@@H]2c3cc4c(cc3[C@H](O)[C@H]3COC(=O)[C@@H]23)OCO4)cc(OC)c1OC [AXL-1717]	> 30 µM (inactive)	> 30 µM (inactive)	> 30 µM (inactive)	> 30 µM (inactive)	> 30 µM (inactive)	> 30 µM (inactive)	> 30 µM (inactive)
NC(=O)Nc1cc(-c2cccc(F)c2)sc1C(=O)N[C@H]1CCCNC1 [AZD-7762]	> 30 µM (inactive)	> 30 µM (inactive)	> 30 µM (inactive)	3.1 µM (active)	0.722 µM (active)	> 30 µM (inactive)	> 30 µM (inactive)
Cc1cc(C(=O)NOCCO)c(Nc2ccc(I)cc2F)n(C)c1=O [AZD-8330]	> 30 µM (inactive)	> 30 µM (inactive)	> 30 µM (inactive)	> 30 µM (inactive)	> 30 µM (inactive)	> 30 µM (inactive)	> 30 µM (inactive)
Cn1cnc2c(F)c(Nc3ccc(Br)cc3F)c(C(=O)NOCCO)cc21 [BINIMETINIB]	> 30 µM (inactive)	> 30 µM (inactive)	> 30 µM (inactive)	> 30 µM (inactive)	> 30 µM (inactive)	> 30 µM (inactive)	> 30 µM (inactive)
CCn1c(C(=O)N(C2CC2)C2CC2)cc2c3c(ncn3C)c(Nc3cc(C)n(C)n3)nc21 [BMS-911543]	> 30 µM (inactive)	> 30 µM (inactive)	> 30 µM (inactive)	> 30 µM (inactive)	> 30 µM (inactive)	> 30 µM (inactive)	> 30 µM (inactive)
COc1c(OCCCN2CCOCC2)ccc2c1N=C(NC(=O)c1cnc(N)nc1)N1CCN=C21 [COPANLISIB]	> 30 µM (inactive)	> 30 µM (inactive)	> 30 µM (inactive)	> 30 µM (inactive)	> 30 µM (inactive)	> 30 µM (inactive)	> 30 µM (inactive)
Cc1nc2cc(-n3ncc(C(=O)c4cc5ccccc5[nH]4)c3N)ccc2[nH]1 [FGFR INHIBITOR DEBIO 1347]	> 30 µM (inactive)	> 30 µM (inactive)	> 30 µM (inactive)	> 30 µM (inactive)	> 30 µM (inactive)	> 30 µM (inactive)	> 30 µM (inactive)
O=C(Nc1nc2cccc(-c3ccc(CN4CCS(=O)(=O)CC4)cc3)n2n1)C1CC1 [FILGOTINIB]	> 30 µM (inactive)	> 30 µM (inactive)	> 30 µM (inactive)	> 30 µM (inactive)	> 30 µM (inactive)	> 30 µM (inactive)	> 30 µM (inactive)
Cc1cccc(-c2nn3c(c2-c2ccnc4ccc(C(N)=O)cc24)CCC3)n1 [GALUNISERTIB]	> 30 µM (inactive)	> 30 µM (inactive)	> 30 µM (inactive)	> 30 µM (inactive)	> 30 µM (inactive)	> 30 µM (inactive)	> 30 µM (inactive)
COc1ccc(S(=O)(=O)N(C(C)=O)c2ccccc2/C=C/c2cc[n+]([O-])cc2)cc1 [HMN-214]	> 30 µM (inactive)	> 30 µM (inactive)	> 30 µM (inactive)	> 30 µM (inactive)	> 30 µM (inactive)	> 30 µM (inactive)	> 30 µM (inactive)
O=C(Nc1cc(C(F)(F)F)cc(C(F)(F)F)c1)c1cc(Cl)ccc1O [IMD-0354]	> 30 µM (inactive)	> 30 µM (inactive)	> 30 µM (inactive)	> 30 µM (inactive)	> 30 µM (inactive)	> 30 µM (inactive)	> 30 µM (inactive)
CNC(=O)c1cccc2cc(Oc3ccnc4cc(OCC5(N)CC5)c(OC)cc34)ccc12 [LUCITANIB]	> 30 µM (inactive)	> 30 µM (inactive)	> 30 µM (inactive)	> 30 µM (inactive)	> 30 µM (inactive)	> 30 µM (inactive)	> 30 µM (inactive)
NC1(c2ccc(-c3nc4ccn5c(=O)[nH]nc5c4cc3-c3ccccc3)cc2)CCC1 [MK-2206]	> 30 µM (inactive)	> 30 µM (inactive)	> 30 µM (inactive)	> 30 µM (inactive)	> 30 µM (inactive)	> 30 µM (inactive)	> 30 µM (inactive)

Now from value to compound:

Kd [1]	Kd [2]	Kd [3]	Kd [4]	Kd [5]	Kd (ADP/ATP translocase 3)	Kd [6]	SMILES
> 30 µM (inactive)	> 30 µM (inactive)	> 30 µM (inactive)	> 30 µM (inactive)	> 30 µM (inactive)	> 30 µM (inactive)	> 30 µM (inactive)	C=CC(=O)Nc1cc2c(Nc3ccc(F)c(Cl)c3)ncnc2cc1C#CC(C)(C)N1CCN(C)CC1 [AV-412 FREE BASE]
> 30 µM (inactive)	> 30 µM (inactive)	> 30 µM (inactive)	> 30 µM (inactive)	> 30 µM (inactive)	> 30 µM (inactive)	> 30 µM (inactive)	COc1cc2ncnc(Oc3cccc(NC(=O)Nc4cc(C(C)(C)C(F)(F)F)on4)c3)c2cc1OC [CEP-32496]
> 30 µM (inactive)	> 30 µM (inactive)	> 30 µM (inactive)	> 30 µM (inactive)	7.1 µM (active)	> 30 µM (inactive)	> 30 µM (inactive)	Cc1cc(Nc2ncc(Cl)c(Nc3ccccc3S(=O)(=O)C(C)C)n2)c(OC(C)C)cc1C1CCNCC1 [CERITINIB]
> 30 µM (inactive)	> 30 µM (inactive)	> 30 µM (inactive)	> 30 µM (inactive)	> 30 µM (inactive)	> 30 µM (inactive)	> 30 µM (inactive)	COCC(=O)NC/C=C/c1ccc2ncnc(Nc3ccc(Oc4ccc(C)nc4)c(C)c3)c2c1 [CP-724714]
> 30 µM (inactive)	> 30 µM (inactive)	> 30 µM (inactive)	> 30 µM (inactive)	> 30 µM (inactive)	> 30 µM (inactive)	> 30 µM (inactive)	C#Cc1cccc(Nc2ncnc3cc(OC)c(OCCCCCCC(=O)NO)cc23)c1 [CUDC-101]
1.72 µM (active)	> 30 µM (inactive)	> 30 µM (inactive)	> 30 µM (inactive)	> 30 µM (inactive)	> 30 µM (inactive)	> 30 µM (inactive)	CNC(=O)c1nn(C)c2c1C(C)(C)Cc1cnc(Nc3ccc(N4CCN(C)CC4)cc3)nc1-2 [MILCICLIB]
